Experimental data as given in patent US9040528B2, “Chemical compounds 542” (AstraZeneca AB, priority 2008, dated 2015).

Target: Escherichia coli DNA gyrase A/B tetramer (Escherichia coli (strain K12), UniProt P0AES4+P0AES6)
Assay: DNA gyrase supercoiling activity fluorescence polarisation assay
Assay type: biochemical
Conditions: 5 nM enzyme, relaxed plasmid, 0.3 mM ATP, ambient temperature; read-out: E. coli DNA gyrase supercoiling IC50
Procedure, shortened: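 Supercoiling reactions quenched with 40 nM 5′-BODIPY-FL triplex-forming oligonucleotide probe in pH 3.5 NaCl/sodium acetate buffer; after 60 min, fluorescence anisotropy read (ex 485/em 535 nm). IC50 by nonlinear regression, normalised to 0.8% DMSO (100% activity) and 5 μM ciprofloxacin (0% activity).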

Compound	IC50
CNC(=O)c1noc2c(Cl)c3c(nc12)CC1(C(=O)NC(=O)NC1=O)[C@H]1[C@H](C)O[C@H](C)CN31 (relative stereo) [Example 125, (2R,4S,4aS)-rel-11-Chloro-N,2,4-trimethyl-2′,4′,6′-trioxo-2,2′,3′,4,4a,4′,6,6′-octahydro-1H,1′H-spiro[isoxazolo[4,5-g][1,4]oxazino[4,3-a][1,5]naphthyridine-5,5′-pyrimidine]-8-carboxamide]	700 nM
Cc1ncsc1-c1noc2c(F)c3c(cc12)CC1(C(=O)NC(=O)NC1=O)[C@@H]1[C@@H](C)O[C@@H](C)CN31 (relative stereo) [Example 71, (2R,4S,4aS)-rel-11-fluoro-2,4-dimethyl-8-(4-methyl-1,3-thiazol-5-yl)-1,2,4,4a-tetrahydro-2′H,6H-spiro[1,4-oxazino[4,3-a][1,2]oxazolo[4,5-g]quinoline-5,5′-pyrimidine]-2′,4′,6′(1′H,3′H)-trione]	900 nM
C[C@@H]1CN2c3c(cc4c(-n5cc(C(N)=O)cn5)noc4c3F)CC3(C(=O)NC(=O)NC3=O)[C@H]2[C@H](C)O1 (relative stereo) [Example 189, 1-[(2R,4S,4aS)-rel-11-fluoro-2,4-dimethyl-2′,4′,6′-trioxo-1,1′,2,3′,4,4′,4a,6′-octahydro-2′H,6H-spiro[1,4-oxazino[4,3-a][1,2]oxazolo[4,5-g]quinoline-5,5′-pyrimidin]-8-yl]-1H-pyrazole-4-carboxamide]	2200 nM
C[C@@H]1CN2c3c(cc4c(NCc5nccs5)noc4c3F)CC3(C(=O)NC(=O)NC3=O)[C@H]2[C@H](C)O1 (relative stereo) [Example 10, (2R,4S,4aS)-rel-11-fluoro-2,4-dimethyl-8-[(1,3-thiazol-2-ylmethyl)amino]-1,2,4,4a-tetrahydro-2′H,6H-spiro[1,4-oxazino[4,3-a][1,2]oxazolo[4,5-g]quinoline-5,5′-pyrimidine]-2′,4′,6′(1′H,3′H)-trione]	1900 nM
C[C@@H]1CN2c3c(cc4c(N(C)C)noc4c3F)CC3(C(=O)NC(=O)NC3=O)[C@H]2[C@H](C)O1 (relative stereo) [Example 24, (2R,4S,4aS)-rel-8-(dimethylamino)-11-fluoro-2,4-dimethyl-1,2,4,4a-tetrahydro-2′H,6H-spiro[isoxazolo[4,5-g][1,4]oxazino[4,3-a]quinoline-5,5′-pyrimidine]-2′,4′,6′(1′H,3′H)-trione]	300 nM
C[C@H]1CN2c3c(cc4c(C(F)F)noc4c3F)CC3(C(=O)NC(=O)NC3=O)[C@@H]2[C@@H](C)O1 [Example 93(a), (2S,4R,4aR)-8-(difluoromethyl)-11-fluoro-2,4-dimethyl-2,4,4a,6-tetrahydro-1H,1′H-spiro[isoxazolo[4,5-g][1,4]oxazino[4,3-a]quinoline-5,5′-pyrimidine]-2′,4′,6′(3′H)-trione]	56000 nM
Cc1noc2c(F)c3c(cc12)CC1(C(=O)NC(=O)NC1=O)[C@H]1[C@H](C)O[C@H](C)CN31 [Example 2(b), (2R,4S,4aS)-11-fluoro-2,4,8-trimethyl-2,4,4a,6-tetrahydro-1H,1′H-spiro[isoxazolo[4,5-g][1,4]oxazino[4,3-a]quinoline-5,5′-pyrimidine]-2′,4′,6′(3′H)-trione]	300 nM
C[C@@H]1CN2c3c(cc4c(-c5cn[nH]c5)noc4c3F)CC3(C(=O)NC(=O)NC3=O)[C@H]2[C@H](C)O1 (relative stereo) [Example 64, (2R,4S,4aS)-rel-11-fluoro-2,4-dimethyl-8-(1H-pyrazol-4-yl)-1,2,4,4a-tetrahydro-2′H,6H-spiro[1,4-oxazino[4,3-a][1,2]oxazolo[4,5-g]quinoline-5,5′-pyrimidine]-2′,4′,6′(1′H,3′H)-trione]	800 nM
C[C@@H]1CN2c3c(cc4c(-n5ccnc5)noc4c3F)CC3(C(=O)NC(=O)NC3=O)[C@H]2[C@H](C)O1 (relative stereo) [Example 58, (2R,4S,4aS)-rel-11-fluoro-8-(1H-imidazol-1-yl)-2,4-dimethyl-1,2,4,4a-tetrahydro-2′H,6H-spiro[1,4-oxazino[4,3-a][1,2]oxazolo[4,5-g]quinoline-5,5′-pyrimidine]-2′,4′,6′(1′H,3′H)-trione]	500 nM
C[C@@H]1CN2c3c(cc4c(NCc5ccncc5)noc4c3F)CC3(C(=O)NC(=O)NC3=O)[C@H]2[C@H](C)O1 (relative stereo) [Example 16, (2R,4S,4aS)-rel-11-fluoro-2,4-dimethyl-8-[(pyridin-4-ylmethyl)amino]-1,2,4,4a-tetrahydro-2′H,6H-spiro[1,4-oxazino[4,3-a][1,2]oxazolo[4,5-g]quinoline-5,5′-pyrimidine]-2′,4′,6′(1′H,3′H)-trione]	2400 nM
C[C@@H]1CN2c3c(cc4c(-n5cc(I)cn5)noc4c3F)CC3(C(=O)NC(=O)NC3=O)[C@H]2[C@H](C)O1 (racemic) [Example 36, (2R,4S,4 aS)-rel-11-fluoro-8-(4-iodo-1H-pyrazol-1-yl)-2,4-dimethyl-1,2,4,4a-tetrahydro-2′H,6H-spiro[1,4-oxazino[4,3-a][1,2]oxazolo[4,5-g]quinoline-5,5′-pyrimidine]-2′,4′,6′(1′H,3′H)-trione]	2100 nM
C[C@@H]1CN2c3c(cc4c(-c5ccnc(O)n5)noc4c3F)CC3(C(=O)NC(=O)NC3=O)[C@H]2[C@H](C)O1 [Example 175, (2R,4S,4aS)-11-fluoro-8-(2-hydroxypyrimidin-4-yl)-2,4-dimethyl-1,2,4,4a-tetrahydro-2′H,6H-spiro[isoxazolo[4,5-g][1,4]oxazino[4,3-a]quinoline-5,5′-pyrimidine]-2′,4′,6′(1′H,3′H)-trione]	900 nM
CC(C)NC(=O)c1noc2c(F)c3c(cc12)CC1(C(=O)NC(=O)NC1=O)[C@H]1[C@H](C)O[C@H](C)CN31 [Example 147(a), (2R,4S,4aS)-11-fluoro-N-isopropyl-2,4-dimethyl-2′,4′,6′-trioxo-2,2′,3′,4,4a,4′,6,6′-octahydro-1H,1′H-spiro[isoxazolo[4,5-g][1,4]oxazino[4,3-a]quinoline-5,5′-pyrimidine]-8-carboxamide]	900 nM
COC[C@@H]1O[C@H](C)CN2c3c(cc4c(C)noc4c3F)CC3(C(=O)NC(=O)NC3=O)[C@@H]12 (relative stereo) [Example 105, (2R,4R,4aS)-rel-11-fluoro-4-(methoxymethyl)-2,8-dimethyl-1,2,4,4a-tetrahydro-2′H,6H-spiro[1,4-oxazino[4,3-a][1,2]oxazolo[4,5-g]quinoline-5,5′-pyrimidine]-2′,4′,6′(1′H,3′H)-trione]	700 nM
CC(C)NC(=O)c1noc2c(F)c3c(cc12)CC1(C(=O)NC(=O)NC1=O)[C@H]1[C@H](C)O[C@H](C)CN31 (relative stereo) [Example 147, (2R,4S,4aS)-rel-11-fluoro-N-isopropyl-2,4-dimethyl-2′,4′,6′-trioxo-2,2′,3′,4,4a,4′,6,6′-octahydro-1H,1′H-spiro[isoxazolo[4,5-g][1,4]oxazino[4,3-a]quinoline-5,5′-pyrimidine]-8-carboxamide]	3900 nM
C[C@@H]1CN2c3c(cc4c(-c5ccncn5)noc4c3Cl)CC3(C(=O)NC(=O)NC3=O)[C@H]2[C@H](C)O1 (relative stereo) [Example 43, (2R,4S,4aS)-rel-11-chloro-2,4-dimethyl-8-(pyrimidin-4-yl)-1,2,4,4a-tetrahydro-2′H,6H-spiro[1,4-oxazino[4,3-a][1,2]oxazolo[4,5-g]quinoline-5,5′-pyrimidine]-2′,4′,6′(1′H,3′H)-trione]	500 nM
C[C@@H]1CN2c3c(cc4c(-c5nccs5)noc4c3F)CC3(C(=O)NC(=O)NC3=O)[C@H]2[C@H](C)O1 [Example 96, (2R,4S,4aS)-11-fluoro-2,4-dimethyl-8-(thiazol-2-yl)-2,4,4a,6-tetrahydro-1H,1′H-spiro[isoxazolo[4,5-g][1,4]oxazino[4,3-a]quinoline-5,5′-pyrimidine]-2′,4′,6′(3′H)-trione]	700 nM
CC(=O)N1CCN(c2noc3c(F)c4c(cc23)CC2(C(=O)NC(=O)NC2=O)[C@H]2[C@H](C)O[C@H](C)CN42)CC1 (relative stereo) [Example 8, (2R,4S,4aS)-rel-8-(4-acetylpiperazin-1-yl)-11-fluoro-2,4-dimethyl-1,2,4,4a-tetrahydro-2′H,6H-spiro[isoxazolo[4,5-g][1,4]oxazino[4,3-a]quinoline-5,5′-pyrimidine]-2′,4′,6′(1′H,3′H)-trione]	8300 nM
C[C@H]1CN2c3c(cc4c(C(F)(F)F)noc4c3F)CC3(C(=O)NC(=O)NC3=O)[C@@H]2[C@@H](C)O1 [Example 92(a), (2S,4R,4aR)-11-fluoro-2,4-dimethyl-8-(trifluoromethyl)-2,4,4a,6-tetrahydro-1H,1′H-spiro[isoxazolo[4,5-g][1,4]oxazino[4,3-a]quinoline-5,5′-pyrimidine]-2′,4′,6′(3′H)-trione]	65000 nM
C[C@@H]1CN2c3c(cc4c(-c5scnc5C#N)noc4c3F)CC3(C(=O)NC(=O)NC3=O)[C@H]2[C@H](C)O1 (relative stereo) [Example 88, 5-[(2R,4S,4aS)-rel-11-fluoro-2,4-dimethyl-2′,4′,6′-trioxo-1,1′,2,3′,4,4′,4a,6′-octahydro-2′H,6H-spiro[1,4-oxazino[4,3-a][1,2]oxazolo[4,5-g]quinoline-5,5′-pyrimidin]-8-yl]-1,3-thiazole-4-carbonitrile]	1200 nM
C[C@@H]1CN2c3c(cc4c(N5CCCCCC5)noc4c3F)CC3(C(=O)NC(=O)NC3=O)[C@H]2[C@H](C)O1 (relative stereo) [Example 26, (2R,4S,4aS)-rel-8-(azepan-1-yl)-11-fluoro-2,4-dimethyl-1,2,4,4a-tetrahydro-2′H,6H-spiro[isoxazolo[4,5-g][1,4]oxazino[4,3-a]quinoline-5,5′-pyrimidine]-2′,4′,6′(1′H,3′H)-trione]	3700 nM
